SMILES strings stand for the structures. The source made the active and inactive calls. The calls are words filed in the database; no cut-off is given here. Bounds are passed on as bounds.

One data set concerns PC-12. The data set can be described thus: Neuroprotective activity in […] cells assessed as induction of NGF-mediated neurite outgrowth by measuring protrusion length extension at 10 uM by methylene blue staining based light microscopic analysis. The settings on record: Rattus norvegicus. Format: functional, cell-based.
On to `C/C=C/C=C/C(=O)O[C@]12C(=O)OC[C@@]1(C)[C@@]1(O)CC[C@@H](C)[C@]13C[C@H]2OC(=O)[C@@H]3O`, for which the outcome was Active.
For the compound `C/C=C/C=C/C(=O)O[C@@H]1C[C@@H](C)[C@@]23C[C@@H](OC(=O)[C@@H]2O)[C@@]2(O)C(=O)OC[C@@]2(C)[C@@]13O`, the outcome was Active.
As for `C[C@@H]1C[C@@H](OC(=O)CCc2ccc(F)cc2)[C@@]2(O)[C@@]13C[C@@H](OC(=O)[C@@H]3O)[C@@]1(O)C(=O)OC[C@@]21C`, the result was Active.

System in a further data set: not listed separately
The data set can be described thus: Cytotoxicity against […] cells assessed as inhibition of cell growth by CCK-8 assay. Format: toxicity, cell-based. The settings on record: rat. (In general: Formazan colour is commonly taken as a measure of viable cells.)
On to `C/C=C/C=C/C(=O)O[C@]12C(=O)OC[C@@]1(C)[C@@]1(O)CC[C@@H](C)[C@]13C[C@H]2OC(=O)[C@@H]3O`, for which the IC50 was greater than 512 µg/mL.
`C/C=C/C=C/C(=O)O[C@@H]1C[C@@H](C)[C@@]23C[C@@H](OC(=O)[C@@H]2O)[C@@]2(O)C(=O)OC[C@@]2(C)[C@@]13O`: the IC50 is greater than 512 µg/mL.

In a further data set the test system is PC-12. The data set can be described thus: Neuroprotective activity against MPP+-induced cell injury in […] cells assessed as cell survival rate at 20 uM (reference value: 68.60 +/- 1.06 %). Format: functional. The settings on record: Rattus norvegicus, read-out: Survival.
For the compound `C/C=C/C=C/C(=O)O[C@]12C(=O)OC[C@@]1(C)[C@@]1(O)CC[C@@H](C)[C@]13C[C@H]2OC(=O)[C@@H]3O`, the viability at 20 µM worked out at 72.5%.
`C/C=C/C=C/C(=O)O[C@@H]1C[C@@H](C)[C@@]23C[C@@H](OC(=O)[C@@H]2O)[C@@]2(O)C(=O)OC[C@@]2(C)[C@@]13O`: the viability at 20 µM came to 68.5%.

Another data set relates to PC-12. The data set can be described thus: Neuroprotective activity in […] cells assessed as induction of NGF-mediated neurite outgrowth by measuring differentiation rate of neurite-beating cells at 10 uM incubated for 72 hrs (reference value: 4.27 +/- 0.04 %). Format: functional, Rattus norvegicus.
Conditions: not given
In the case of `C/C=C/C=C/C(=O)O[C@]12C(=O)OC[C@@]1(C)[C@@]1(O)CC[C@@H](C)[C@]13C[C@H]2OC(=O)[C@@H]3O`, the Activity is recorded as 11.02%.
Regarding `C[C@@H]1CC[C@@]2(O)[C@@]13C[C@@H](OC(=O)[C@@H]3O)[C@@]1(OC(=O)CCCBr)C(=O)OC[C@@]21C`, the Activity amounted to 6.04%.
Turning to `COc1cc(CC(=O)O[C@]23C(=O)OC[C@@]2(C)[C@@]2(O)CC[C@@H](C)[C@]24C[C@H]3OC(=O)[C@@H]4O)cc(OC)c1OC`, the Activity was 6.06%.
Still for that read-out and setting: under `C[C@@H]1CC[C@@]2(O)[C@@]13C[C@@H](OC(=O)[C@@H]3O)[C@@]1(OC(=O)CCc3cccc(Cl)c3)C(=O)OC[C@@]21C` stands 4.88%; under `C[C@@H]1CC[C@@]2(O)[C@@]13C[C@@H](OC(=O)[C@@H]3O)[C@@]1(OC(=O)CCc3cccc(F)c3)C(=O)OC[C@@]21C`, 5.7%; under `C/C=C/C=C/C(=O)O[C@@H]1C[C@@H](C)[C@@]23C[C@@H](OC(=O)[C@@H]2O)[C@@]2(OC(=O)/C=C/C=C/C)C(=O)OC[C@@]2(C)[C@@]13O`, 5.13%.
With `C[C@@H]1CC[C@@]2(O)[C@@]13C[C@@H](OC(=O)[C@@H]3O)[C@@]1(OC(=O)Cc3ccc(F)cc3)C(=O)OC[C@@]21C`, the Activity amounted to 5.85%.
On the same count and under the same terms, under `C[C@@H]1C[C@@H](OC(=O)CCC(=O)c2ccccc2)[C@@]2(O)[C@@]13C[C@@H](OC(=O)[C@@H]3O)[C@@]1(O)C(=O)OC[C@@]21C` stands 6.42%.
`C[C@@H]1CC[C@@]2(O)[C@@]13C[C@@H](OC(=O)[C@@H]3O)[C@@]1(O)C(=O)OC[C@@]21C`: the Activity is 8.76%.
In the case of `C[C@@H]1C[C@@H](OC(=O)CCc2ccc(Cl)cc2)[C@@]2(O)[C@@]13C[C@@H](OC(=O)[C@@H]3O)[C@@]1(O)C(=O)OC[C@@]21C`, the Activity was 5.03%.
On to `C[C@@H]1CC[C@@]2(O)[C@@]13C[C@@H](OC(=O)[C@@H]3O)[C@@]1(OC(=O)Cc3cccc(Cl)c3)C(=O)OC[C@@]21C`, for which the Activity is listed as 5.53%.
Regarding `C[C@@H]1C[C@@H](OC(=O)CCc2cccc(Br)c2)[C@@]2(O)[C@@]13C[C@@H](OC(=O)[C@@H]3O)[C@@]1(O)C(=O)OC[C@@]21C`, the Activity is on record as 5.56%.
As to `C[C@@H]1C[C@@H](OC(=O)CCc2ccccc2)[C@@]2(O)[C@@]13C[C@@H](OC(=O)[C@@H]3O)[C@@]1(O)C(=O)OC[C@@]21C`, the Activity was found to be 9.67%.
Consider `C[C@@H]1C[C@@H](OC(=O)CCc2ccccc2)[C@@]2(O)[C@@]13C[C@@H](OC(=O)[C@@H]3O)[C@@]1(OC(=O)CCc3ccccc3)C(=O)OC[C@@]21C`, for which the Activity stood at 5.47%.
Turning to `C[C@@H]1CC[C@@]2(O)[C@@]13C[C@@H](OC(=O)[C@@H]3O)[C@@]1(OC(=O)CCc3ccc(F)cc3)C(=O)OC[C@@]21C`, the Activity is listed as 8.99%.
As to `C[C@@H]1C[C@@H](OC(=O)CCc2cccc(Br)c2)[C@@]2(O)[C@@]13C[C@@H](OC(=O)[C@@H]3O)[C@@]1(OC(=O)CCc3cccc(Br)c3)C(=O)OC[C@@]21C`, the Activity worked out at 5.1%.
Same read-out and setting: under `C/C=C/C=C/C(=O)O[C@@H]1C[C@@H](C)[C@@]23C[C@@H](OC(=O)[C@@H]2O)[C@@]2(O)C(=O)OC[C@@]2(C)[C@@]13O` stands 11.83%; under `C[C@@H]1C[C@@H](OC(=O)CCC(=O)c2ccccc2)[C@@]2(O)[C@@]13C[C@@H](OC(=O)[C@@H]3O)[C@@]1(OC(=O)CCC(=O)c3ccccc3)C(=O)OC[C@@]21C`, 5.25%.
Still for that read-out and setting: in the case of `C[C@@H]1C[C@@H](OC(=O)CCc2ccc(Br)cc2)[C@@]2(O)[C@@]13C[C@@H](OC(=O)[C@@H]3O)[C@@]1(O)C(=O)OC[C@@]21C` it was 10.02%; in that of `C[C@@H]1CC[C@@]2(O)[C@@]13C[C@@H](OC(=O)[C@@H]3O)[C@@]1(OC(=O)Cc3cccc(F)c3)C(=O)OC[C@@]21C`, 5.9%.
Same read-out and setting: under `C[C@@H]1CC[C@@]2(O)[C@@]13C[C@@H](OC(=O)[C@@H]3O)[C@@]1(OC(=O)CCc3ccccc3)C(=O)OC[C@@]21C` stands 10.04%; under `C[C@@H]1C[C@@H](OC(=O)CCc2cccc(Cl)c2)[C@@]2(O)[C@@]13C[C@@H](OC(=O)[C@@H]3O)[C@@]1(OC(=O)CCc3cccc(Cl)c3)C(=O)OC[C@@]21C`, 4.54%.
Consider `C[C@@H]1C[C@@H](OC(=O)CCc2ccc(F)cc2)[C@@]2(O)[C@@]13C[C@@H](OC(=O)[C@@H]3O)[C@@]1(OC(=O)CCc3ccc(F)cc3)C(=O)OC[C@@]21C`, for which the Activity was 9.41%.
For the compound `C[C@@H]1C[C@@H](O)[C@@]2(O)[C@@]13C[C@@H](OC(=O)[C@@H]3O)[C@@]1(O)C(=O)OC[C@@]21C`, the Activity came out at 6.25%.
With `C[C@@H]1C[C@@H](OC(=O)CCc2ccc(F)cc2)[C@@]2(O)[C@@]13C[C@@H](OC(=O)[C@@H]3O)[C@@]1(O)C(=O)OC[C@@]21C`, the Activity stood at 10.96%.
For `C[C@@H]1CC[C@@]2(O)[C@@]13C[C@@H](OC(=O)[C@@H]3O)[C@@]1(OC(=O)CCc3ccc(Br)cc3)C(=O)OC[C@@]21C`, the Activity is 6.85%.
Regarding `C[C@@H]1CC[C@@]2(O)[C@@]13C[C@@H](OC(=O)[C@@H]3O)[C@@]1(OC(=O)/C=C/c3ccccc3)C(=O)OC[C@@]21C`, the Activity was 5.38%.
On to `C[C@@H]1C[C@@H](OC(=O)CCc2ccc(Cl)cc2)[C@@]2(O)[C@@]13C[C@@H](OC(=O)[C@@H]3O)[C@@]1(OC(=O)CCc3ccc(Cl)cc3)C(=O)OC[C@@]21C`, for which the Activity worked out at 5.21%.
Take `C[C@@H]1CC[C@@]2(O)[C@@]13C[C@@H](OC(=O)[C@@H]3O)[C@@]1(OC(=O)Cc3ccc(Br)cc3)C(=O)OC[C@@]21C`: the Activity amounted to 4.9%.
On the same count and under the same terms, under `C[C@@H]1CC[C@@]2(O)[C@@]13C[C@@H](OC(=O)[C@@H]3O)[C@@]1(OC(=O)Cc3ccc(Cl)cc3)C(=O)OC[C@@]21C` stands 5.52%; under `C[C@@H]1CC[C@@]2(O)[C@@]13C[C@@H](OC(=O)[C@@H]3O)[C@@]1(OC(=O)CCC(=O)c3ccccc3)C(=O)OC[C@@]21C`, 8.79%.
Take `C[C@@H]1C[C@@H](OC(=O)CCc2cccc(Cl)c2)[C@@]2(O)[C@@]13C[C@@H](OC(=O)[C@@H]3O)[C@@]1(O)C(=O)OC[C@@]21C`: the Activity is given as 4.69%.
For the compound `C[C@@H]1C[C@@H](OC(=O)CCc2ccc(Br)cc2)[C@@]2(O)[C@@]13C[C@@H](OC(=O)[C@@H]3O)[C@@]1(OC(=O)CCc3ccc(Br)cc3)C(=O)OC[C@@]21C`, the Activity is given as 8.73%.
For `C[C@@H]1CC[C@@]2(O)[C@@]13C[C@@H](OC(=O)[C@@H]3O)[C@@]1(OC(=O)CCc3ccc(Cl)cc3)C(=O)OC[C@@]21C`, the Activity came out at 6.05%.
For the compound `COc1ccc(CC(=O)O[C@]23C(=O)OC[C@@]2(C)[C@@]2(O)CC[C@@H](C)[C@]24C[C@H]3OC(=O)[C@@H]4O)cc1`, the Activity is listed as 5.27%.
`C[C@@H]1C[C@@H](OC(=O)CCc2cccc(F)c2)[C@@]2(O)[C@@]13C[C@@H](OC(=O)[C@@H]3O)[C@@]1(OC(=O)CCc3cccc(F)c3)C(=O)OC[C@@]21C`: the Activity was 4.93%.
Still for that read-out and setting: in the case of `C[C@@H]1CC[C@@]2(O)[C@@]13C[C@@H](OC(=O)[C@@H]3O)[C@@]1(OC(=O)CCCCBr)C(=O)OC[C@@]21C` it was 5.28%.
Take `C[C@@H]1CC[C@@]2(O)[C@@]13C[C@@H](OC(=O)[C@@H]3O)[C@@]1(OC(=O)Cc3ccc4ccccc4c3)C(=O)OC[C@@]21C`: the Activity amounted to 5.55%.
Turning to `C[C@@H]1CC[C@@]2(O)[C@@]13C[C@@H](OC(=O)[C@@H]3O)[C@@]1(OC(=O)CCc3cccc(Br)c3)C(=O)OC[C@@]21C`, the Activity is on record as 5.04%.
Consider `C[C@@H]1C[C@@H](OC(=O)CCc2cccc(F)c2)[C@@]2(O)[C@@]13C[C@@H](OC(=O)[C@@H]3O)[C@@]1(O)C(=O)OC[C@@]21C`, for which the Activity turned out to be 5.78%.
Same read-out and setting: under `C[C@@H]1CC[C@@]2(O)[C@@]13C[C@@H](OC(=O)[C@@H]3O)[C@@]1(OC(=O)Cc3cccc(Br)c3)C(=O)OC[C@@]21C` stands 6.91%.

Broadly, the IC50 is the concentration needed to halve the response being measured.

(Values after ChEMBL document CHEMBL5131459, “Semisynthesis and neurotrophic activity studies of novel neomajucin/majucin derivatives as neurotrophin small molecule mimetics” (Bioorg Med Chem Lett, 2022).)
